Key:
Assay type in all cases: functional
[1] = In vitro cytotoxicity against B16 melanoma cells relative to paclitaxel ED50 = 1
[2] = Ability to induce the formation of microtubules using microtubule assembly assay in vitro relative to paclitaxel ED50 = 1
[3] = In vitro cytotoxicity against P388 cells relative to paclitaxel ED50 = 1

| SMILES | Ratio [1] | Ratio [2] | Ratio [3] |
| --- | --- | --- | --- |
| CC(=O)O[C@H]1C(=O)[C@@]2(C)[C@H]([C@H](OC(=O)c3ccccc3)[C@]3(O)C[C@H](OC(=O)[C@H](O)[C@@H](NC(=O)c4ccc(N=[N+]=[N-])cc4)c4ccccc4)C(C)=C1C3(C)C)[C@]1(OC(C)=O)CO[C@@H]1C[C@@H]2O | 4.6 | 2 |  |
| CC(=O)O[C@@]12CO[C@@H]1C[C@H](O)[C@@]1(C)C(=O)[C@H](O)C3=C(C)[C@@H](OC(=O)[C@H](O)[C@@H](NC(=O)OC(C)(C)C)c4ccccc4)C[C@@](O)([C@@H](OC(=O)c4ccccc4)[C@H]21)C3(C)C.O.O.O [DOCETAXEL] | 0.41 | 0.45 |  |
| CC(=O)O[C@H]1C(=O)[C@@]2(C)[C@H]([C@H](OC(=O)c3ccccc3)[C@]3(O)C[C@H](OC(=O)[C@H](O)[C@@H](NC(=O)c4cc(N=[N+]=[N-])cc([N+](=O)[O-])c4)c4ccccc4)C(C)=C1C3(C)C)[C@]1(OC(C)=O)CO[C@@H]1C[C@@H]2O | 17.4 | 3 |  |
| CC(=O)O[C@H]1C(=O)[C@@]2(C)[C@H]([C@H](OC(=O)c3cccc(N=[N+]=[N-])c3)[C@]3(O)C[C@H](OC(=O)[C@H](O)[C@@H](NC(=O)c4ccccc4)c4ccccc4)C(C)=C1C3(C)C)[C@]1(OC(C)=O)CO[C@@H]1C[C@@H]2O | 0.65 | 0.4 | 0.08 |
| CC(=O)O[C@H]1C(=O)[C@@]2(C)[C@H]([C@H](OC(=O)c3ccccc3)[C@]3(O)C[C@H](OC(=O)[C@H](O)[C@@H](NC(=O)c4cccc(N=[N+]=[N-])c4)c4ccccc4)C(C)=C1C3(C)C)[C@]1(OC(C)=O)CO[C@@H]1C[C@@H]2O | 2.6 | 0.81 |  |
| CC(=O)O[C@H]1C(=O)[C@@]2(C)[C@H]([C@H](OC(=O)c3cccc(N=[N+]=[N-])c3)[C@]3(O)C[C@H](OC(=O)[C@H](O)[C@@H](NC(=O)OC(C)(C)C)c4ccccc4)C(C)=C1C3(C)C)[C@]1(OC(C)=O)CO[C@@H]1C[C@@H]2O | 0.37 | 1.2 |  |
| CC(=O)O[C@H]1C(=O)[C@@]2(C)[C@H]([C@H](OC(=O)c3ccccc3)[C@]3(O)C[C@H](OC(=O)[C@H](O)[C@@H](NC(=O)c4ccccc4)c4ccccc4)C(C)=C1C3(C)C)[C@]1(OC(C)=O)CO[C@@H]1C[C@@H]2O [PACLITAXEL] | 1 | 1 |  |

— ChEMBL document CHEMBL1128856, “Paclitaxel and docetaxel photoaffinity labels” (1995)
